Key:
Experiment in all cases: Histone peptide microarray
Type in all cases: binding, human
SP140L = conditions: GST-tagged SP140L; for Array Heatmap signal, SP140L: sheet "Array Heatmap", arrays performed twice, total replicate number n = 4
In short: (§1)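 Readout is array binding signal, reported as the mean and standard deviation over four replicates. Each purified GST-fused PHD domain was incubated at 0.5 μM with a library of 293 modified histone peptides.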

MLL5 = conditions: GST-tagged MLL5; for Array Heatmap signal, MLL5: sheet "Array Heatmap", arrays performed twice, total replicate number n = 4
In short: as §1

KDM5B (1) = conditions: GST-tagged KDM5B (1); for Array Heatmap signal, KDM5B (1): sheet "Array Heatmap", arrays performed twice, total replicate number n = 4
In short: as §1

ING2 = conditions: GST-tagged ING2; for Array Heatmap signal, ING2: sheet "Array Heatmap", arrays performed twice, total replicate number n = 4
In short: as §1

MORC3 (CW) = conditions: for Array Heatmap signal, MORC3 (CW): sheet "Array Heatmap", GST-tagged MORC3 (CW), arrays performed twice, total replicate number n = 4
In short: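 Purified PHD finger domains fused to GST are screened against 293 synthetic histone peptides bearing one or several post-translational modifications. The protein is used at 0.5 μM, and the signal from four replicate arrays is averaged, with standard deviation given.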

CHD5 (PCC) = conditions: for Array Heatmap signal, CHD5 (PCC): sheet "Array Heatmap", GST-tagged CHD5 (PCC), arrays performed twice, total replicate number n = 4
In short: as §1

KDM5A (3) = conditions: GST-tagged KDM5A (3); for Array Heatmap signal, KDM5A (3): sheet "Array Heatmap", arrays performed twice, total replicate number n = 4
In short: as §1

ING4 = conditions: GST-tagged ING4; for Array Heatmap signal, ING4: sheet "Array Heatmap", arrays performed twice, total replicate number n = 4
In short: as §1

BPTF (PB) = conditions: for Array Heatmap signal, BPTF (PB): sheet "Array Heatmap", GST-tagged BPTF (PB), arrays performed twice, total replicate number n = 4
In short: as §1

DIDO1 = conditions: GST-tagged DIDO1; for Array Heatmap signal, DIDO1: sheet "Array Heatmap", arrays performed twice, total replicate number n = 4
In short: as §1

KDM7A = conditions: GST-tagged KDM7A; for Array Heatmap signal, KDM7A: sheet "Array Heatmap", arrays performed twice, total replicate number n = 4
In short: as §1

PHF2 = conditions: GST-tagged PHF2; for Array Heatmap signal, PHF2: sheet "Array Heatmap", arrays performed twice, total replicate number n = 4
In short: as §1

ING1 = conditions: GST-tagged ING1; for Array Heatmap signal, ING1: sheet "Array Heatmap", arrays performed twice, total replicate number n = 4
In short: as §1

TAF3 = conditions: GST-tagged TAF3; for Array Heatmap signal, TAF3: sheet "Array Heatmap", arrays performed twice, total replicate number n = 4
In short: as §1

AIRE (PP) = conditions: GST-tagged AIRE (PP); for Array Heatmap signal, AIRE (PP): sheet "Array Heatmap", arrays performed twice, total replicate number n = 4
In short: as §1

PHF21A = conditions: GST-tagged PHF21A; for Array Heatmap signal, PHF21A: sheet "Array Heatmap", arrays performed twice, total replicate number n = 4
In short: as §1

ING3 = conditions: GST-tagged ING3; for Array Heatmap signal, ING3: sheet "Array Heatmap", arrays performed twice, total replicate number n = 4
In short: as §1

BAZ2B = conditions: GST-tagged BAZ2B; for Array Heatmap signal, BAZ2B: sheet "Array Heatmap", arrays performed twice, total replicate number n = 4
In short: as §1

DPF2 (PPC2W2) = conditions: for Array Heatmap signal, DPF2 (PPC2W2): sheet "Array Heatmap", GST-tagged DPF2 (PPC2W2), arrays performed twice, total replicate number n = 4
In short: as §1

PHF8 = conditions: GST-tagged PHF8; for Array Heatmap signal, PHF8: sheet "Array Heatmap", arrays performed twice, total replicate number n = 4
In short: as §1

ING5 = conditions: GST-tagged ING5; for Array Heatmap signal, ING5: sheet "Array Heatmap", arrays performed twice, total replicate number n = 4
In short: as §1

PHRF1 (RP) = conditions: GST-tagged PHRF1 (RP); for Array Heatmap signal, PHRF1 (RP): sheet "Array Heatmap", arrays performed twice, total replicate number n = 4
In short: as §1

CHD5 (PPCC) = conditions: for Array Heatmap signal, CHD5 (PPCC): sheet "Array Heatmap", GST-tagged CHD5 (PPCC), arrays performed twice, total replicate number n = 4
In short: as §1

KDM5B (3) = conditions: GST-tagged KDM5B (3); for Array Heatmap signal, KDM5B (3): sheet "Array Heatmap", arrays performed twice, total replicate number n = 4
In short: as §1

PHF13 = conditions: GST-tagged PHF13; for Array Heatmap signal, PHF13: sheet "Array Heatmap", arrays performed twice, total replicate number n = 4
In short: as §1

KDM5A (1) = conditions: GST-tagged KDM5A (1); for Array Heatmap signal, KDM5A (1): sheet "Array Heatmap", arrays performed twice, total replicate number n = 4
In short: as §1

RAG2 = conditions: GST-tagged RAG2; for Array Heatmap signal, RAG2: sheet "Array Heatmap", arrays performed twice, total replicate number n = 4
In short: as §1

CHD4 (PPCC) = conditions: for Array Heatmap signal, CHD4 (PPCC): sheet "Array Heatmap", GST-tagged CHD4 (PPCC), arrays performed twice, total replicate number n = 4
In short: as §1

PHF23 = conditions: GST-tagged PHF23; for Array Heatmap signal, PHF23: sheet "Array Heatmap", arrays performed twice, total replicate number n = 4
In short: as §1

KDM4C (TTP) = conditions: for Array Heatmap signal, KDM4C (TTP): sheet "Array Heatmap", GST-tagged KDM4C (TTP), arrays performed twice, total replicate number n = 4
In short: as §1

TRIM66 (PB) = conditions: for Array Heatmap signal, TRIM66 (PB): sheet "Array Heatmap", GST-tagged TRIM66 (PB), arrays performed twice, total replicate number n = 4
In short: as §1

[1] = sheet Array Heatmap, each array performed twice, total n = 4

Substance: H3K23me1 15-34: H3 15-34
- Array Heatmap signal, SP140L (SP140L): 0.3205
- Array Heatmap signal, MLL5 (MLL5): 0.5166
- Array Heatmap signal, KDM5B (1) (KDM5B (1)): 0.6704
- Array Heatmap signal, ING2 (ING2): 0.5717
- Array Heatmap signal, MORC3 (CW) (MORC3 (CW)): 0.2751
- Array Heatmap signal, CHD5 (PCC) (CHD5 (PCC)): 0.7691
- Array Heatmap signal, KDM5A (3) (KDM5A (3)): 0.3565
- Array Heatmap signal, ING4 (ING4): 0.3978
- Array Heatmap signal, BPTF (PB) (BPTF (PB)): 0.3041
- Array Heatmap signal, DIDO1 (DIDO1): 0.5926
- Array Heatmap signal, KDM7A (KDM7A): 0.3872
- Array Heatmap signal, PHF2 (PHF2): 0.3956
- Array Heatmap signal, ING1 (ING1): 0.468
- Array Heatmap signal, TAF3 (TAF3): 0.2405
- Array Heatmap signal, AIRE (PP) (AIRE (PP)): 0.4449
- Array Heatmap signal, PHF21A (PHF21A): 0.4373
- Array Heatmap signal, ING3 (ING3): 0.3997
- Array Heatmap signal, BAZ2B (BAZ2B): 0.4158
- Array Heatmap signal, DPF2 (PPC2W2) (DPF2 (PPC2W2)): 0.6371
- Array Heatmap signal, PHF8 (PHF8): 0.3239
- Array Heatmap signal, ING5 (ING5): 0.3097
- Array Heatmap signal, PHRF1 (RP) (PHRF1 (RP)): 0.3534
- Array Heatmap signal, CHD5 (PPCC) (CHD5 (PPCC)): 0.4785
- Array Heatmap signal, KDM5B (3) (KDM5B (3)): 0.4273
- Array Heatmap signal, PHF13 (PHF13): 0.5337
- Array Heatmap signal, KDM5A (1) (KDM5A (1)): 0.4342
- Array Heatmap signal, RAG2 (RAG2): 0.2067
- Array Heatmap signal, CHD4 (PPCC) (CHD4 (PPCC)): 0.5163
- Array Heatmap signal, PHF23 (PHF23): 0.4553
- Array Heatmap signal, KDM4C (TTP) (KDM4C (TTP)): 0.4583
- Array Heatmap signal, TRIM66 (PB) (TRIM66 (PB)): 0.5248

Substance: H3R8me2s + K9me3: H3 1-20
- Array Heatmap signal, SP140L (SP140L): 0.3989
- Array Heatmap signal, MLL5 (MLL5): 0.5932
- Array Heatmap signal, KDM5B (1) (KDM5B (1)): 0.6697
- Array Heatmap signal, ING2 (ING2): 0.6159
- Array Heatmap signal, MORC3 (CW) (MORC3 (CW)): 0.4796
- Array Heatmap signal, CHD5 (PCC) (CHD5 (PCC)): 0.8709
- Array Heatmap signal, KDM5A (3) (KDM5A (3)): 0.5266
- Array Heatmap signal, ING4 (ING4): 0.5372
- Array Heatmap signal, BPTF (PB) (BPTF (PB)): 0.4039
- Array Heatmap signal, DIDO1 (DIDO1): 0.7617
- Array Heatmap signal, KDM7A (KDM7A): 0.3933
- Array Heatmap signal, PHF2 (PHF2): 0.5404
- Array Heatmap signal, ING1 (ING1): 0.6071
- Array Heatmap signal, TAF3 (TAF3): 0.3134
- Array Heatmap signal, AIRE (PP) (AIRE (PP)): 0.6619
- Array Heatmap signal, PHF21A (PHF21A): 0.5424
- Array Heatmap signal, ING3 (ING3): 0.5417
- Array Heatmap signal, BAZ2B (BAZ2B): 0.5401
- Array Heatmap signal, DPF2 (PPC2W2) (DPF2 (PPC2W2)): 0.784
- Array Heatmap signal, PHF8 (PHF8): 0.4276
- Array Heatmap signal, ING5 (ING5): 0.4272
- Array Heatmap signal, PHRF1 (RP) (PHRF1 (RP)): 0.5937
- Array Heatmap signal, CHD5 (PPCC) (CHD5 (PPCC)): 0.6469
- Array Heatmap signal, KDM5B (3) (KDM5B (3)): 0.5509
- Array Heatmap signal, PHF13 (PHF13): 0.7048
- Array Heatmap signal, KDM5A (1) (KDM5A (1)): 0.5383
- Array Heatmap signal, RAG2 (RAG2): 0.2769
- Array Heatmap signal, CHD4 (PPCC) (CHD4 (PPCC)): 0.6275
- Array Heatmap signal, PHF23 (PHF23): 0.594
- Array Heatmap signal, KDM4C (TTP) (KDM4C (TTP)): 0.5668
- Array Heatmap signal, TRIM66 (PB) (TRIM66 (PB)): 0.7482

Substance: H3K4me3 + K18ac: H3 1-20
- Array Heatmap signal (histone peptide microarray) (SP140L; [1]): 0.3614
- Array Heatmap signal (histone peptide microarray) (MLL5; [1]): 0.8685
- Array Heatmap signal (histone peptide microarray) (KDM5B (1); [1]): 0.7261
- Array Heatmap signal (histone peptide microarray) (ING2; [1]): 0.9902
- Array Heatmap signal (histone peptide microarray) (MORC3 (CW); GST-tagged MORC3 (CW = CW-type Zn-finger), sheet Array Heatmap, each array performed twice, total n = 4): 0.8723
- Array Heatmap signal (histone peptide microarray) (CHD5 (PCC); GST-tagged CHD5 (PCC = PHD + Dual Chromodomain), sheet Array Heatmap, each array performed twice, total n = 4): 0.8106
- Array Heatmap signal (histone peptide microarray) (KDM5A (3); [1]): 0.9747
- Array Heatmap signal (histone peptide microarray) (ING4; [1]): 0.674
- Array Heatmap signal (histone peptide microarray) (BPTF (PB); GST-tagged BPTF (PB = PHD + Bromodomain), sheet Array Heatmap, each array performed twice, total n = 4): 0.7125
- Array Heatmap signal (histone peptide microarray) (DIDO1; [1]): 0.9924
- Array Heatmap signal (histone peptide microarray) (KDM7A; [1]): 0.4973
- Array Heatmap signal (histone peptide microarray) (PHF2; [1]): 1
- Array Heatmap signal (histone peptide microarray) (ING1; [1]): 1
- Array Heatmap signal (histone peptide microarray) (TAF3; [1]): 0.7205
- Array Heatmap signal (histone peptide microarray) (AIRE (PP); [1]): 0.4183
- Array Heatmap signal (histone peptide microarray) (PHF21A; [1]): 0.4388
- Array Heatmap signal (histone peptide microarray) (ING3; [1]): 0.7492
- Array Heatmap signal (histone peptide microarray) (BAZ2B; [1]): 0.4486
- Array Heatmap signal (histone peptide microarray) (DPF2 (PPC2W2); GST-tagged DPF2 (PPC2W2 = Dual PHD + C2W2-type Zn-finger), sheet Array Heatmap, each array performed twice, total n = 4): 0.7175
- Array Heatmap signal (histone peptide microarray) (PHF8; [1]): 0.6791
- Array Heatmap signal (histone peptide microarray) (ING5; [1]): 0.4874
- Array Heatmap signal (histone peptide microarray) (PHRF1 (RP); [1]): 0.7444
- Array Heatmap signal (histone peptide microarray) (CHD5 (PPCC); GST-tagged CHD5 (PPCC = Dual PHD + Dual Chromodomain), sheet Array Heatmap, each array performed twice, total n = 4): 0.5532
- Array Heatmap signal (histone peptide microarray) (KDM5B (3); [1]): 0.8599
- Array Heatmap signal (histone peptide microarray) (PHF13; [1]): 0.813
- Array Heatmap signal (histone peptide microarray) (KDM5A (1); [1]): 0.4457
- Array Heatmap signal (histone peptide microarray) (RAG2; [1]): 0.6973
- Array Heatmap signal (histone peptide microarray) (CHD4 (PPCC); GST-tagged CHD4 (PPCC = Dual PHD + Dual Chromodomain), sheet Array Heatmap, each array performed twice, total n = 4): 0.6241
- Array Heatmap signal (histone peptide microarray) (PHF23; [1]): 1
- Array Heatmap signal (histone peptide microarray) (KDM4C (TTP); GST-tagged KDM4C (TTP = Tandem Tudor domain + PHD), sheet Array Heatmap, each array performed twice, total n = 4): 0.6519
- Array Heatmap signal (histone peptide microarray) (TRIM66 (PB); GST-tagged TRIM66 (PB = PHD + Bromodomain), sheet Array Heatmap, each array performed twice, total n = 4): 0.639

Source: article PMC6979384, “Characterization of the plant homeodomain (PHD) reader family for their histone tail interactions” (Epigenetics & Chromatin, 2020)
